Data taken from PMC6606794, “Crosstalk of Cellulose and Mannan Perception Pathways Leads to Inhibition of Cellulase Production in Several Filamentous Fungi” (mBio, 2019).

Legend:
[1] = biological target: T1, CDT-1 (Neurospora crassa, UniProt Q7SCU1); assay: uptake by yeast expressing CDT-1, residual sugar by HPAEC-PAD; assay type: cell-based; details: 100 µM sugar, 30 min, over empty-vector background
T1 construct: pRS316-CDT1 expressed in Saccharomyces cerevisiae D452-2
T1 sequence (Q7SCU1 1-579): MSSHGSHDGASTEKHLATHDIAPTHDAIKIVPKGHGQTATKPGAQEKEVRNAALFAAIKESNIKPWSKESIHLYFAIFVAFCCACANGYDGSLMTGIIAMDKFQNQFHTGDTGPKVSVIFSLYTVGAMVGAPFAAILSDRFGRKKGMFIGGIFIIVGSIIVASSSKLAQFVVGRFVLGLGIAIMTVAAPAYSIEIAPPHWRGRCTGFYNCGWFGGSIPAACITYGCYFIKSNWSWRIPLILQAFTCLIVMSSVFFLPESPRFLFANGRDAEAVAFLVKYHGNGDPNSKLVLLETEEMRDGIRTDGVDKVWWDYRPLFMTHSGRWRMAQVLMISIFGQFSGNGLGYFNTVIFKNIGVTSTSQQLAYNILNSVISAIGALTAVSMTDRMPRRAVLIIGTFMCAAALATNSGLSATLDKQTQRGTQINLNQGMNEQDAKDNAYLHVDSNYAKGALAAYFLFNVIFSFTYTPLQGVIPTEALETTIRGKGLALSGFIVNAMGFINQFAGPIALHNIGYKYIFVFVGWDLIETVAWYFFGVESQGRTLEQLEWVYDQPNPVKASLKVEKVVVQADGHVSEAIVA

[2] = biological target: T2, CDT-2 (Neurospora crassa, UniProt Q7SD12); assay: uptake by yeast expressing CDT-2, residual sugar by HPAEC-PAD; assay type: cell-based; details: 100 µM sugar, 30 min
T2 construct: pRS316-CDT2 expressed in Saccharomyces cerevisiae D452-2
T2 sequence (Q7SD12 1-525): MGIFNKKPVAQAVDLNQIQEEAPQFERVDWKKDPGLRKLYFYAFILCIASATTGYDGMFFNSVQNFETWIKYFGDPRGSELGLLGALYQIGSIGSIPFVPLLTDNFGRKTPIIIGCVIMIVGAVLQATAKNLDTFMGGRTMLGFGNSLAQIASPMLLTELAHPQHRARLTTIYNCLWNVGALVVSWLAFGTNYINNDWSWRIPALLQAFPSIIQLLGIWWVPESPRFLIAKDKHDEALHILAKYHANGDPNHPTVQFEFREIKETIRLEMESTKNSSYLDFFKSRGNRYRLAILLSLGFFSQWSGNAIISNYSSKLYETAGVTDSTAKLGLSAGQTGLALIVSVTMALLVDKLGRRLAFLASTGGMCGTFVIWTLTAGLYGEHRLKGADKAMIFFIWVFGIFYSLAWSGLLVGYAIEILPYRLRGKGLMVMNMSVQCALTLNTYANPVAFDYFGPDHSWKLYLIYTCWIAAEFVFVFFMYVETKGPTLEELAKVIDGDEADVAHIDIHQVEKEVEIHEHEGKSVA

[3] = biological target: T3, GH2-1 (Neurospora crassa, UniProt Q7SFE1); assay: 4-nitrophenol release, absorbance at […] nm; assay type: biochemical; details: 50 mM KP buffer pH 5.5, 37 °C, 1 h, 0.1 µg enzyme, 80 µg substrate
T3 construct: gh2-1 cDNA in pGAPZ-B (EcoRI/XbaI), His-tagged, expressed in Pichia pastoris X-33, purified by IMAC from cell lysate; no predicted signal peptide
T3 sequence (Q7SFE1 1-854): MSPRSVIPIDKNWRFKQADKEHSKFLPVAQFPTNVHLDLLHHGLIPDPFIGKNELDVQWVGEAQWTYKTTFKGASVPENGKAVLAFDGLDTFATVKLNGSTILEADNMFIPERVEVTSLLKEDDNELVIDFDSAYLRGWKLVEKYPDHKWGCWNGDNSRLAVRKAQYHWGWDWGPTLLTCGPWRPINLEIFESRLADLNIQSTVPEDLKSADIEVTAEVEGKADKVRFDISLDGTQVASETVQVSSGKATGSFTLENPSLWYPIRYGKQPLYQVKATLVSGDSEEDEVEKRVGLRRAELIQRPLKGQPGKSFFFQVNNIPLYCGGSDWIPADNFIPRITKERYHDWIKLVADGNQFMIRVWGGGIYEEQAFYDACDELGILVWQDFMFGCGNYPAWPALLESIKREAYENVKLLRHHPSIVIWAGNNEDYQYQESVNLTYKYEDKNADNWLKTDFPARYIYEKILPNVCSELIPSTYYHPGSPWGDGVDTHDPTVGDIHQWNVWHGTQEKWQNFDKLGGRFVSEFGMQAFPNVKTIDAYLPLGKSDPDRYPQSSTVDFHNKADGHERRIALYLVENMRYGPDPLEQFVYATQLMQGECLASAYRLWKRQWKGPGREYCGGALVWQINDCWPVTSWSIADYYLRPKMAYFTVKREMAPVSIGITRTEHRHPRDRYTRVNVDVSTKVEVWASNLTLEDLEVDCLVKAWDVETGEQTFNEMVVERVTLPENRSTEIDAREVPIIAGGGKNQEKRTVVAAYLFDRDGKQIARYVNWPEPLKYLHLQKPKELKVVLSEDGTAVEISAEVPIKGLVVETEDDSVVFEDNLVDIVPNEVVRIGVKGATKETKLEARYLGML

| SMILES | % remaining in supernatant ([1]; competes with mannobiose) | uptake by yeast expressing CDT-2, residual sugar by HPAEC-PAD [2] | % remaining in supernatant ([1]; competes with cellobiose) | 4-nitrophenol release, absorbance at 405 nm [3] |
| --- | --- | --- | --- | --- |
| OC[C@H]1O[C@@H](O[C@H]2[C@H](O)[C@@H](O)C(O)O[C@@H]2CO)[C@H](O)[C@@H](O)[C@@H]1O (some centres unmarked) [CB, cellobiose] | ~ 40% | not only cellobiose was imported by both S. cerevisiae strains, but also mannobiose | – | – |
| OC[C@H]1O[C@@H](O[C@H]2[C@H](O)[C@H](O)C(O)O[C@@H]2CO)[C@@H](O)[C@@H](O)[C@@H]1O (some centres unmarked) [MB, mannobiose] | – | not only cellobiose was imported by both S. cerevisiae strains, but also mannobiose | ~ 18% | – |
| O=[N+]([O-])c1ccc(O[C@@H]2O[C@H](CO)[C@@H](O)[C@H](O)[C@@H]2O)cc1 [ρNP-β-Man, 4-nitrophenyl-β-D-mannopyranoside] | – | – | – | The purified enzyme showed strong activity on ρNP-β-D-mannopyranoside with high specificity |
